# Measured values as given in US9718819B2 (Merck Sharp & Dohme Corp., priority 2012, dated 2017).
# Biological target: HIV-1 RT wild-type enzyme (Human immunodeficiency virus type 1 group M subtype B (isolate HXB2) (HIV-1), UniProt P04585)
# Assay: HIV-1 reverse transcriptase inhibitory activity (RT polymerase assay)
# Type: biochemical
# Conditions: HIV-1 RT wild-type enzyme 83 pM; RNA-dependent DNA polymerase activity; read-out: IC50
# Summary of the method: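 Enzyme and compound were preincubated 30 min at room temperature, then RNA/DNA hybrid (16.6 nM final; HCV-derived RNA, biotinylated primer) plus 2 μM dNTPs and 66.6 nM Ru-dUTP added, 90 min at 37 °C. Avidin capture and ECL counting; percent inhibition relative to DMSO (0%) and 1 μM efavirenz (100%), four-parameter IC50 fit.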
row,SMILES,IC50
1,"N#Cc1cc(Cl)cc(Oc2c(C(F)(F)F)ncn(Cc3cc(C(N)=O)c(=O)[nH]n3)c2=O)c1 [Example 101, 6-((5-(3-chloro-5-cyanophenoxy)-6-oxo-4-(trifluoromethyl)pyrimidin-1(6H)-yl)methyl)-3-oxo-2,3-dihydropyridazine-4-carboxamide]",0.153 µM
2,"Cc1ncc(Cn2cnc(C(F)(F)F)c(Oc3cc(Cl)cc(C#N)c3)c2=O)c(=O)[nH]1 [Example 133, 3-chloro-5-((1-((2-methyl-6-oxo-1,6-dihydropyrimidin-5-yl)methyl)-6-oxo-4-(trifluoromethyl)-1,6-dihydropyrimidin-5-yl)oxy)benzonitrile]",0.008 µM
3,"N#Cc1cc(Cl)cc(Oc2c(C(F)(F)F)ncn(Cc3cnc(-c4ccc(Cl)cc4)[nH]c3=O)c2=O)c1 [Example 151, 3-chloro-5-((1-((2-(4-chlorophenyl)-6-oxo-1,6-dihydropyrimidin-5-yl)methyl)-6-oxo-4-(trifluoromethyl)-1,6-dihydropyrimidin-5-yl)oxy)benzonitrile]",0.028 µM
4,"Cc1ccc(-c2cc(Cn3cnc(C(F)(F)F)c(Oc4cc(Cl)cc(C#N)c4)c3=O)n[nH]c2=O)cc1F [Example 58, 3-chloro-5-((1-((5-(3-fluoro-4-methylphenyl)-6-oxo-1,6-dihydropyridazin-3-yl)methyl)-6-oxo-4-(trifluoromethyl)-1,6-dihydropyrimidin-5-yl)oxy)benzonitrile]",0.004 µM
5,"N#Cc1cc(Cl)cc(Oc2c(C(F)(F)F)ncn(Cc3ncc[nH]c3=O)c2=O)c1 [Example 4, 3-chloro-5-((6-oxo-1-((3-oxo-3,4-dihydropyrazin-2-yl)methyl)-4-(trifluoromethyl)-1,6-dihydropyrimidin-5-yl)oxy)benzonitrile]",0.124 µM
6,"COc1ccc(-c2cc(Cn3cnc(C(F)(F)F)c(Oc4cc(Cl)cc(C#N)c4)c3=O)n[nH]c2=O)cc1F [Example 52, 3-chloro-5-((1-((5-(3-fluoro-4-methoxyphenyl)-6-oxo-1,6-dihydropyridazin-3-yl)methyl)-6-oxo-4-(trifluoromethyl)-1,6-dihydropyrimidin-5-yl)oxy)benzonitrile]",0.004 µM
7,"N#Cc1cc(Cl)cc(Oc2c(C(F)(F)F)ncn(Cc3cc(-c4cc(Cl)ccc4F)c(=O)[nH]n3)c2=O)c1 [Example 47, 3-chloro-5-((1-((5-(5-chloro-2-fluorophenyl)-6-oxo-1,6-dihydropyridazin-3-yl)methyl)-6-oxo-4-(trifluoromethyl)-1,6-dihydropyrimidin-5-yl)oxy)benzonitrile]",0.011 µM
8,"CC(F)(F)c1cc(Cn2cnc(C(C)(F)F)c(Oc3cc(Cl)cc(C#N)c3)c2=O)c(=O)[nH]n1 [Example 180, 3-chloro-5-((4-(1,1-difluoroethyl)-1-((6-(1,1-difluoroethyl)-3-oxo-2,3-dihydropyridazin-4-yl)methyl)-6-oxo-1,6-dihydropyrimidin-5-yl)oxy)benzonitrile]",0.005 µM
9,"Cc1ccc(-c2cc(Cn3cnc(C(F)(F)F)c(Oc4cc(Cl)cc(C#N)c4)c3=O)n[nH]c2=O)cc1 [Example 31, 3-chloro-5-((6-oxo-1-((6-oxo-5-(p-tolyl)-1,6-dihydropyridazin-3-yl)methyl)-4-(trifluoromethyl)-1,6-dihydropyrimidin-5-yl)oxy)benzonitrile]",0.005 µM
10,"N#Cc1cc(Cl)cc(Oc2c(C(F)(F)F)ncn(Cc3cc(-c4cc(F)c(F)c(F)c4)c(=O)[nH]n3)c2=O)c1 [Example 55, 3-chloro-5-((6-oxo-1-((6-oxo-5-(3,4,5-trifluorophenyl)-1,6-dihydropyridazin-3-yl)methyl)-4-(trifluoromethyl)-1,6-dihydropyrimidin-5-yl)oxy)benzonitrile]",0.011 µM
11,[2H]C([2H])(c1ccc(=O)[nH]n1)n1cnc(C(F)(F)F)c(Oc2cc(Cl)cc(C#N)c2)c1=O [Example 8],0.009 µM
12,"N#Cc1cc(Cl)cc(Oc2c(C(F)(F)F)ncn(Cc3cc(OC(F)F)c(=O)[nH]n3)c2=O)c1 [Example 109, 3-chloro-5-((1-((5-(difluoromethoxy)-6-oxo-1,6-dihydropyridazin-3-yl)methyl)-6-oxo-4-(trifluoromethyl)-1,6-dihydropyrimidin-5-yl)oxy)benzonitrile]",0.007 µM
13,"CC(=O)c1ncc(Cn2cnc(C(F)(F)F)c(Oc3cc(Cl)cc(C#N)c3)c2=O)c(=O)[nH]1 [Example 156, 3-((1-((2-acetyl-6-oxo-1,6-dihydropyrimidin-5-yl)methyl)-6-oxo-4-(trifluoromethyl)-1,6-dihydropyrimidin-5-yl)oxy)-5-chlorobenzonitrile]",0.024 µM
14,"Cn1nccc1-c1cc(Cn2cnc(C(F)(F)F)c(Oc3cc(Cl)cc(C#N)c3)c2=O)n[nH]c1=O [Example 76, 3-chloro-5-((1-((5-(1-methyl-1H-pyrazo1-5-yl)-6-oxo-1,6-dihydropyridazin-3-yl)methyl)-6-oxo-4-(trifluoromethyl)-1,6-dihydropyrimidin-5-yl)oxy)benzonitrile]",0.099 µM
15,"N#Cc1cc(Cl)cc(Oc2c(C(F)(F)F)ncn(Cc3cc(-c4ccc(C(F)(F)F)cc4)n[nH]c3=O)c2=O)c1 [Example 119, 3-chloro-5-((6-oxo-1-((3-oxo-6-(4-(trifluoromethyl)phenyl)-2,3-dihydropyridazin-4-yl)methyl)-4-(trifluoromethyl)-1,6-dihydropyrimidin-5-yl)oxy)benzonitrile]",0.012 µM
16,"Cc1c(C#N)cc(F)cc1Oc1c(C(F)(F)F)ncn(Cc2cc(-c3ccc(F)cc3)c(=O)[nH]n2)c1=O [Example 168, 5-fluoro-3-((1-((5-(4-fluorophenyl)-6-oxo-1,6-dihydropyridazin-3-yl)methyl)-6-oxo-4-(trifluoromethyl)-1,6-dihydropyrimidin-5-yl)oxy)-2-methylbenzonitrile]",0.005 µM
17,"CCS(=O)(=O)c1cc(Cn2cnc(C(F)(F)F)c(Oc3cc(Cl)cc(C#N)c3)c2=O)n[nH]c1=O [Example 97, 3-chloro-5-((1-((5-(ethylsulfonyl)-6-oxo-1,6-dihydropyridazin-3-yl)methyl)-6-oxo-4-(trifluoromethyl)-1,6-dihydropyrimidin-5-yl)oxy)benzonitrile]",0.247 µM
18,"N#Cc1cc(Cl)cc(Oc2c(C(F)(F)F)ncn(Cc3cnc(-c4ccn[nH]4)[nH]c3=O)c2=O)c1 [Example 148, 3-chloro-5-((6-oxo-1-((6-oxo-2-(1H-pyrazol-5-yl)-1,6-dihydropyrimidin-5-yl)methyl)-4-(trifluoromethyl)-1,6-dihydropyrimidin-5-yl)oxy)benzonitrile]",0.009 µM
19,"CC(F)(F)c1cc(Cn2cnc(C(F)F)c(Oc3cc(Cl)cc(C#N)c3)c2=O)c(=O)[nH]n1 [Example 179, 3-chloro-5-((1-((6-(1,1-difluoroethyl)-3-oxo-2,3-dihydropyridazin-4-yl)methyl)-4-(difluoromethyl)-6-oxo-1,6-dihydropyrimidin-5-yl)oxy)benzonitrile]",0.008 µM
20,"N#Cc1cc(Cl)cc(Oc2c(C(F)(F)F)ncn(Cc3cc(-c4ccc(Cl)c(F)c4)c(=O)[nH]n3)c2=O)c1 [Example 46, 3-chloro-5-((1-((5-(4-chloro-3-fluorophenyl)-6-oxo-1,6-dihydropyridazin-3-yl)methyl)-6-oxo-4-(trifluoromethyl)-1,6-dihydropyrimidin-5-yl)oxy)benzonitrile]",0.005 µM
21,"N#Cc1cc(Cl)cc(Oc2c(C(F)(F)F)ncn(Cc3cc(-c4cc(F)cc(Cl)c4)c(=O)[nH]n3)c2=O)c1 [Example 27, 3-chloro-5-((1-((5-(3-chloro-5-fluorophenyl)-6-oxo-1,6-dihydropyridazin-3-yl)methyl)-6-oxo-4-(trifluoromethyl)-1,6-dihydropyrimidin-5-yl)oxy)benzonitrile]",0.014 µM
22,"CSc1ncc(Cn2cnc(C(F)(F)F)c(Oc3cc(Cl)cc(C#N)c3)c2=O)c(=O)[nH]1 [Example 132, 3-chloro-5-((1-((2-(methylthio)-6-oxo-1,6-dihydropyrimidin-5-yl)methyl)-6-oxo-4-(trifluoromethyl)-1,6-dihydropyrimidin-5-yl)oxy)benzonitrile]",0.012 µM
23,"N#Cc1cc(Cl)cc(Oc2c(C(F)(F)F)ncn(Cc3cc(-c4ccc(OC(F)(F)F)cc4)c(=O)[nH]n3)c2=O)c1 [Example 24, 3-chloro-5-((6-oxo-1-((6-oxo-5-(4-(trifluoromethoxy)phenyl)-1,6-dihydropyridazin-3-yl)methyl)-4-(trifluoromethyl)-1,6-dihydropyrimidin-5-yl)oxy)benzonitrile]",0.024 µM
24,"N#Cc1cc(Cl)cc(Oc2c(C(F)(F)F)ncn(Cc3n[nH]c(=O)c4cccnc34)c2=O)c1 [Example 1, 3-chloro-5-((6-oxo-1-((5-oxo-5,6-dihydropyrido[2,3-d]pyridazin-8-yl)methyl)-4-(trifluoromethyl)-1,6-dihydropyrimidin-5-yl)oxy)benzonitrile]",0.191 µM
25,"Cc1c(C#N)cc(F)cc1Oc1c(C(F)(F)F)ncn(Cc2ccc(=O)[nH]n2)c1=O [Example 164, 5-fluoro-2-methyl-3-(6-oxo-1-((6-oxo-1,6-dihydropyridazin-3-yl)methyl)-4-(trifluoromethyl)-1,6-dihydropyrimidin-5-yloxy)benzonitrile]",0.007 µM
26,"CCc1ncc(Cn2cnc(C(F)(F)F)c(Oc3cc(Cl)cc(C#N)c3)c2=O)c(=O)[nH]1 [Example 144, 3-chloro-5-((1-((2-ethyl-6-oxo-1,6-dihydropyrimidin-5-yl)methyl)-6-oxo-4-(trifluoromethyl)-1,6-dihydropyrimidin-5-yl)oxy)benzonitrile]",0.009 µM
27,"N#Cc1cc(Cl)cc(Oc2c(C3CC3)ncn(Cc3ccc(=O)[nH]n3)c2=O)c1 [Example 134, 3-chloro-5-((4-cyclopropyl-6-oxo-1-((6-oxo-1,6-dihydropyridazin-3-yl)methyl)-1,6-dihydropyrimidin-5-yl)oxy)benzonitrile]",0.017 µM
28,"N#Cc1cccc(Oc2c(C(F)(F)F)ncn(Cc3cc(C(F)F)n[nH]c3=O)c2=O)c1F [Example 174, 3-((1-((6-(difluoromethyl)-3-oxo-2,3-dihydropyridazin-4-yl)methyl)-6-oxo-4-(trifluoromethyl)-1,6-dihydropyrimidin-5-yl)oxy)-2-fluorobenzonitrile]",0.005 µM
